Measurements published in patent US11773067B2, “(Trifluoromethyl)pyrimidine-2-amine compounds” (Eli Lilly and Company, priority 2020, dated 2023).
Like-named read-outs stand apart in the source and are kept apart here. Each block holds one molecule with its values, some of them ahead of it.

How the values were obtained:
human MrgX1 receptor = biological target: T1, human MrgX1 receptor (Homo sapiens, UniProt Q96LB2); test: IP1 Cellular Assay for EC50 Determination Against hMrgX1 by HTRF; format: cell-based; details: in presence of EC15 of BAM8-22; for EC50: HEK293 cells stably expressing hMrgX1, geometric mean (SEM, n), read-out: Relative EC50 (SEM, n)
T1 construct: expressed in transfected cells
Procedure: IP1 Cellular Assay for EC50 Determination Against hMrgX1 by HTRF
Cell plating: HEK293 cells stably expressing the recombinant human MrgX1 receptor are expanded in culture flasks (Corning, T150), using growth media containing DMEM with glutamine (GIBCO™, Cat. #11960-044) supplemented with 10% heat-inactivated FBS (HyClone™, Cat. #CH30073), 1% penicillin/streptomycin (HyClone™, Cat. #SV30010; 10,000 U/mL penicillin; 10,000 μg/mL streptomycin in 0.85% NaCl), 20 mM HEPES (GIBCO™, Cat. #15530122) and 0.3 mg/mL G418 (GIBCO™, Cat. #11811031). When cell monolayers achieve a level of 80-90% confluence, monolayers are washed once with 10 mL of DPBS (HyClone™, Cat. #14190-144), dissociated using TrypLE™ Express enzyme cell dissociation media (GIBCO™, Cat. #12605-010), and diluted by addition of 10 mL DPBS. Dissociated cells are transferred to a sterile 50 mL conical tube, pelleted by centrifugation at 300×g to remove the growth and dissociation media, and diluted to 1M cells/mL into DMEM for plating.
IP1 Potency and Efficacy Determination: Test compounds are dissolved in DMSO to a concentration of 10 mM and serially diluted in DMSO to obtain a 10-point concentration response stock dilution plate. Growth media is removed from the cell plate, and the stock 10-point dilution plate is diluted into media and stamped into the cell plate at a concentration 2× higher than the final test concentration of 30 μM maximum. The endogenous agonist […] (Tocris-BioScience® Cat. #1763) is diluted to the EC15, determined independently at a minimum of n=3, into the cell plate and incubated at room temperature for 120 min. Subsequently, half the volume each of anti-IP1 cryptate and d2-labeled IP1 in lysis buffer, supplied with the IP-One Gq Kit (CisBio Cat. #62IPAPEC) are added to the cell plate to initiate cell lysis, and incubated for 60 min at room temperature in the dark. At that point, fluorescence is determined at 620 and 665 nm (˜100 μs following laser excitation).
Data Analysis: Fluorescent ratios are determined as the ratio of the fluorescence emission at […] and converted to IP1 concentration, using the IP1 standard curve generated in a separate plate, following the manufacturer's instructions. The IP1 concentration is then plotted as a function of compound concentration. Potentiator potency (EC50) is defined as the compound concentration, in the presence of the EC15 of the endogenous agonist […], resulting in 50% of the increase in IP1 concentration achieved by a saturating concentration of […], and is determined by using Genedata software (GeneData AG, Basel Switzerland) fitting the following equation to the 10-point CRC, where y is the IP1 concentration determined for a given compound concentration, [L] denotes the concentration of test compound and Max is the maximum increase achieved by a saturating concentration of […]: Y=Max*[L]/(EC50+[L]) EC50 values are reported as the geometric mean in nM (SEM, n).

[1] = In Vivo Determination of Kp,uu,brain in Mice; parameters: species or system mouse; details: for Kp uu at 2 h / concentration at 2 h: male, mouse; for Kp uu at 2 h: C57Bl/6, brain/plasma; for concentration at 2 h: C57Bl/6, mouse, po
Text: In Vivo Determination of Kp,uu,brain in Mice
Unbound brain-to-plasma partition coefficient (Kp,uu,brain) is one of the key pharmacokinetic parameter for evaluating a compound's ability to cross the blood-brain barrier (BBB). It is typically measured in pre-clinical species using the following methodology. Kp,uu,brain values indicate the fraction of free drug in plasma that partitions across the BBB.
Subjects: The subjects for these studies are 12 male C57Bl/6 mice (Envigo, Indianapolis, IN, USA) between 8-10 weeks old at time of test. Mice are housed in groups of 4 in high density plastic home cages. Food and water is available ad libitum. The rooms are maintained at 73° F. with 30-70% relative humidity and kept on a light/dark cycle of 0600-1800 h. Agent: The compound of Example 2 is prepared at 0.3, 1, and 3 mg/ml in the 1% HEC, 0.25% TWEEN®80, 0.05% DOWSIL™ vehicle in water. Prepared compound is sonicated in water bath for 30 min until a suspension is formed. Mice are dosed at 10 ml/kg for a respective 3, 10 or 30 mg/kg dose. Dosing and Tissue Collection: For this experiment, four mice per dosing group receive oral dosing of either: 3, 10, or 30 mg/kg of the compound of Example 2. Mice are euthanized at 2 h post-dosing via CO2 asphyxiation, plasma samples are collected via cardia puncture, and mouse brains removed, weighed, and frozen on dry ice. Blood samples are stored in EDTA tubes on wet ice and centrifuged at 15 k rpm for 10 min. Plasma is collected, plated in a 96-well plate, and frozen at −80° C.
Pharmacokinetic sampling: Plasma and brain samples obtained are analyzed for Example 2 using an LC-MS/MS method (Q2 Solutions, Indianapolis, IN, USA). Plasma samples are extracted using protein precipitation. The lower limit of quantification is 25 ng/mL, and the upper limit of quantification is 5000 ng/mL. Brain samples are homogenized, and the analyte is extracted using protein precipitation. The lower limit of quantification is 4 ng/g and the upper limit of quantification is 200000 ng/g.
Analysis and Results: Kp,uu,brain is calculated for each time point from the expression below where individual components are derived from a combination of in vitro and in vivo measurements carried out as described above:
[formula] where Ctotal,brain, Cu,brain, Ctotal,plasma, and Cu,plasma are total and unbound brain and plasma concentrations, and fu,brain and fu,plasma are fractions unbound in brain and plasma, respectively.

[2] = Plasma and brain homogenate protein binding by equilibrium dialysis; format: in vitro ADME, mouse
Procedure: Determination of plasma and brain protein binding: Mouse plasma and brain homogenate protein binding is determined in vitro using equilibrium dialysis, as described elsewhere [Zamek-Gliszczynski et al., J Pharm Sci, 101:1932-1940, 2012]. The results are reported as fraction unbound in plasma (fu,plasma) and brain (fu,brain) which are then utilized to calculate Kp,uu,brain as described below. Mouse fu,plasma and fu,brain of Example 2 are determined to be 0.0421 and 0.0181, respectively.

T1 sequence (Q96LB2 whole entry): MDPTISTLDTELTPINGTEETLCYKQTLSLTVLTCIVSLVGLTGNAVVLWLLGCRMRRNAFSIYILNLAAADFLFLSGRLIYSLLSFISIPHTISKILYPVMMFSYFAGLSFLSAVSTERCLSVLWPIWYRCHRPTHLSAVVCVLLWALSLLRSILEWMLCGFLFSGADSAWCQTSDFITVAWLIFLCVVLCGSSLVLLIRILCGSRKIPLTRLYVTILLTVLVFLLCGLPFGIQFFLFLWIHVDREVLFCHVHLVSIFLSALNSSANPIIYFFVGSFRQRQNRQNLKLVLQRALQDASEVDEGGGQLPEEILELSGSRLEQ

Structure (SMILES): Nc1nc(Oc2c(F)cccc2F)cc(C(F)(F)F)n1 [Example 1, 4-(2,6-Difluorophenoxy)-6-(trifluoromethyl)pyrimidin-2-amine]
- EC50 (human MrgX1 receptor): 72 nM

Structure (SMILES): N#Cc1cc(F)c(Oc2cc(C(F)(F)F)nc(N)n2)c(F)c1 [Example 3, 4-[2-Amino-6-(trifluoromethyl)pyrimidin-4-yl]oxy-3,5-difluoro-benzonitrile]
- EC50 (human MrgX1 receptor): 104 nM

Structure (SMILES): Cc1c(Oc2c(F)cc(C#N)cc2F)nc(N)nc1C(F)(F)F [Example 5, 4-[2-Amino-5-methyl-6-(trifluoromethyl)pyrimidin-4-yl]oxy-3,5-difluoro-benzonitrile]
- EC50 (human MrgX1 receptor): 82 nM
- Max (Mean ± SEM) (human MrgX1 receptor; maximum stimulation achieved in the assay): 120 nM

These reach a lower EC50 (human MrgX1 receptor). Values come first.

- EC50 (human MrgX1 receptor): 61 nM
- Kp uu at 2 h ([1]; 3 mg/kg oral): 0.506 ± 0.107
- Kp uu at 2 h ([1]; 10 mg/kg oral): 0.586 ± 0.116
- Kp uu at 2 h ([1]; 30 mg/kg oral): 0.601 ± 0.0553
- concentration at 2 h ([1]; brain, 3 mg/kg, 3 mg/kg oral, read-out: Total brain conc. (Ctotal,brain) ± SD): 972 ± 353 nM
- concentration at 2 h ([1]; brain, 3 mg/kg, 3 mg/kg oral, using fu,brain 0.0181, read-out: Unbound brain conc. (Cu,brain) ± SD): 17.6 ± 6.39 nM
- concentration at 2 h ([1]; brain, 10 mg/kg, 10 mg/kg oral, read-out: Total brain conc. (Ctotal,brain) ± SD): 3900 ± 1800 nM
- concentration at 2 h ([1]; brain, 10 mg/kg, 10 mg/kg oral, using fu,brain 0.0181, read-out: Unbound brain conc. (Cu,brain) ± SD): 55.4 ± 32.5 nM
- concentration at 2 h ([1]; brain, 30 mg/kg, 30 mg/kg oral, read-out: Total brain conc. (Ctotal,brain) ± SD): 13700 ± 4200 nM
- concentration at 2 h ([1]; brain, 30 mg/kg, 30 mg/kg oral, using fu,brain 0.0181, read-out: Unbound brain conc. (Cu,brain) ± SD): 248 ± 75.9 nM
- concentration at 2 h ([1]; plasma, 3 mg/kg, 3 mg/kg oral, read-out: Total plasma conc. (Ctotal,plasma) ± SD): 809 ± 140 nM
- concentration at 2 h ([1]; plasma, 3 mg/kg, 3 mg/kg oral, using fu,plasma 0.0421, read-out: Unbound plasma conc. (Cu,plasma) ± SD): 34.1 ± 5.94 nM
- concentration at 2 h ([1]; plasma, 10 mg/kg, 10 mg/kg oral, read-out: Total plasma conc. (Ctotal,plasma) ± SD): 2770 ± 651 nM
- concentration at 2 h ([1]; plasma, 10 mg/kg, 10 mg/kg oral, using fu,plasma 0.0421, read-out: Unbound plasma conc. (Cu,plasma) ± SD): 117 ± 27.4 nM
- concentration at 2 h ([1]; plasma, 30 mg/kg, 30 mg/kg oral, read-out: Total plasma conc. (Ctotal,plasma) ± SD): 9700 ± 2410 nM
- concentration at 2 h ([1]; plasma, 30 mg/kg, 30 mg/kg oral, using fu,plasma 0.0421, read-out: Unbound plasma conc. (Cu,plasma) ± SD): 409 ± 101 nM
- fraction unbound ([2]; mouse brain homogenate, read-out: fraction unbound in brain (fu,brain)): 0.0181
- fraction unbound ([2]; mouse plasma, read-out: fraction unbound in plasma (fu,plasma)): 0.0421
Structure (SMILES): Nc1nc(Oc2c(F)cc(F)cc2F)cc(C(F)(F)F)n1 [Example 2, 4-(2,4,6-Trifluorophenoxy)-6-(trifluoromethyl)pyrimidin-2-amine]
- blood brain barrier crossing / central penetrance ([1]; 2 h post-oral administration in mice): crosses the blood brain barrier and has central penetrance

- EC50 (human MrgX1 receptor): 40 nM
Structure (SMILES): Cc1c(Oc2c(F)cc(F)cc2F)nc(N)nc1C(F)(F)F [Example 4, 5-Methyl-4-(trifluoromethyl)-6-(2,4,6-trifluorophenoxy)pyrimidin-2-amine]

- EC50 (human MrgX1 receptor): 38 nM
Structure (SMILES): Cc1c(Oc2c(F)cccc2F)nc(N)nc1C(F)(F)F [Example 6, 4-(2,6-difluorophenoxy)-5-methyl-6-(trifluoromethyl)pyrimidin-2-amine]
